Measurements taken from publication PMC12167799, “The role of human Shu complex in ATP-dependent regulation of RAD51 filaments during homologous recombination–associated DNA damage response” (The Journal of Biological Chemistry, 2025).

Target: T1, hSWS1-SWSAP1 (human Shu complex) (Homo sapiens, UniProt Q6NVH7)
T1 construct: heterodimer co-expressed in High Five insect cells (baculovirus); SWSAP1 with TEV-cleavable N-terminal 6xHis tag (cleaved), SWS1 untagged; with Zinc finger SWIM domain-containing protein 7
T1 sequence (Q6NVH7 22-250): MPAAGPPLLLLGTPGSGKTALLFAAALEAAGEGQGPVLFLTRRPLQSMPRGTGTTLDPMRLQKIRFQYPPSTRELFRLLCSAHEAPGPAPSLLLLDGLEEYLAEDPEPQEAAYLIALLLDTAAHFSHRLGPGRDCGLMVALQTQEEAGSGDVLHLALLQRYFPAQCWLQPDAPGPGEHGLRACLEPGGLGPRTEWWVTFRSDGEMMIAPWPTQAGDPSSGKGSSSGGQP
T1 sequence (Q19AV6 1-140 partner): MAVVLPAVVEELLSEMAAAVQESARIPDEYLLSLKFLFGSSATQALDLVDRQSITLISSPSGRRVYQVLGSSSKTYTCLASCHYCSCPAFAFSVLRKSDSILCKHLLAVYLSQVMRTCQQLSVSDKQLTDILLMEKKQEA
Assay: TNP-ATP displacement fluorescence, one-site competitive fit
Type: binding
Conditions: read-out: Kd^ATP; 2 μM protein; 2.5 μM TNP-ATP; no DNA; 37 °C; competitive with TNP-ATP

A Kd of 72.3 µM was found for Nc1ncnc2c1ncn2[C@@H]1O[C@H](COP(=O)(O)OP(=O)(O)OP(=O)(O)O)[C@@H](O)[C@H]1O [ATP] in this work.
